Results taken from patent publication US20190212343A1, “METHODS FOR THE TREATMENT OF DISORDERS RELATED TO PHOSPHORYLATION OF HISTONES” (H. LEE MOFFITT CANCER CENTER AND RESEARCH INSTITUTE, INC., priority 2014, published 2019).

What was measured:
Type in all cases: cell-based, human
[1] = test system: pY88-H4 epigenetic marks in AR gene; experiment: ChIP with pY88-H4 antibodies and real time PCR at the AR gene; settings: LNCaP and VCaP cells grown in the absence of androgen
Description: FIGS. 10A-10C show H4 Y88-phosphorylation occurs within and downstream of AR gene. (FIG. 10A) The human AR gene and two pY88-H4 binding sites are shown. (FIG. 10B) VCaP and (FIG. 10C) LNCaP cells treated with ACK1 inhibitor; ChIP was performed followed by qPCR using primers corresponding to promoter, intron 2, 3′UTR or control region. VCaP: *p<0.05, **p<0.05; LNCaP: *p<0.05, **p<0.05
To determine whether ACK1 modifies chromatin at AR gene locus, LNCaP and VCaP cells grown in the absence of androgen and were treated with AIM-100. Chromatin immunoprecipitation (ChIP) was performed using pY88-H4 antibodies, followed by real time PCR with primers corresponding to the AR promoter, intron 2 and 3′UTR (FIG. 10A). […] These marks were also deposited at 3′UTR of the AR gene but not at the promoter region (FIGS. 10B and 10C).

[2] = test system: AR and H3K4me3 at intron 2 of AR gene; experiment: ChIP with AR or H3K4me3 antibodies and qPCR at intron 2 of AR gene; settings: LNCaP cells, absence of androgen
Description: LNCaP cells treated with AIM-100 and ChIP was performed using AR, H3K4me3 or IgG antibodies followed by qPCR using primers corresponding to intron 2, or control region. *p<0.05, **p<0.05.

[3] = test system: VCaP cells; experiment: Cell proliferation assay, viable cells counted by trypan blue exclusion; settings: androgen-independent VCaP cells, charcoal stripped media, 36 hrs; read-out: IC50, inhibition of cell growth
Description: (§1) FIGS. 5A and 5B show cell proliferation assay. (FIG. 5A) LNCaP and (FIG. 5B) VCaP cells were grown in charcoal stripped media and treated with 1, 2.5, 5 and 10 uM of inhibitors (36 hrs) and number of viable cells were counted by trypan blue exclusion assay
(§2) Applicant also assessed ability of the new Ack1 inhibitors to suppress proliferation of prostate cancer cell lines. […] Overall, it appears that ACK I is needed for androgen-independent growth of prostate cancer cells.

[4] = test system: LNCaP cells; experiment: as above; settings: charcoal stripped media, 36 hrs, read-out: IC50, inhibition of cell growth
Description: as §1, §2

[5] = test system: AR mRNA; experiment: AR mRNA levels in androgen-deprived prostate cancer cells (qPCR with AR primers); settings: androgen-deprived LAPC4 and LNCaP cells, overnight treatment
[6] = test system: SLC6A4 mRNA; experiment: SLC6A4 mRNA expression (real time RT-PCR); settings: inhibition of ACK1 by small molecule inhibitor
Description: The ratio of SLC6A4 to actin is shown. (FIG. 5D) JAR cells were treated with EGF ligand and ChIP was performed using pY99-H3 antibodies followed by quantitative PCR using primers corresponding to intron 2 (VNTR). […]
Applicant also identified for the first time that human and mouse serotonin transporter (SLC6A4 or SERT or 5-HTT) gene expression is regulated by ACK1. A novel mechanism was identified that is operational in SLC6A4 gene regulation. ACK1 deposits pY99-H3 epigenetic marks in promoter (5-HTTLPR) and intron 2 (VNTR) of SLC6A4 gene to regulate its transcription. […] Without being bound by theory, applicant believes that expression of Gabra6, Slc6a2, Slc6a4, Slc6a5 and Oxt genes as well as genes shown in Table 2 are also regulated by ACK1/pY99-H3 epigenetic activity/signaling.

c1ccc(-c2oc3ncnc(NC[C@@H]4CCCO4)c3c2-c2ccccc2)cc1 [AIM-100]
pY88-H4 epigenetic marks at AR gene (intron 2, 3′UTR) [1]: erased | AR enrichment at intron 2 of AR gene [2]: abolished | H3K4me3 methyl marks at intron 2 of AR gene [2]: abolished | IC50 [3]: 4 µM | IC50 [4]: 7 µM | AR mRNA levels [5]: significantly suppressed | SLC6A4 mRNA expression [6]: significant loss of SLC6A4 mRNA expression
